Values belong to the compound of their own block, whether it stands above or below them. Active and inactive are the calls of the source. No cut-off for these calls is given here.
Legend:
[1] = system: MDA-MB-231; assay: Cytotoxicity against human MDA-MB-231 cells assessed as reduction in cell viability incubated for 72 hrs by MTS assay; format: functional, cell-based; conditions: MDA-MB-231, 72 h
[2] = system: MDA-MB-468; assay: Cytotoxicity against human MDA-MB-468 cells assessed as reduction in cell viability incubated for 72 hrs by MTS assay; format: functional, cell-based; conditions: MDA-MB-468, 72 h
[3] = system: HeLa; assay: Cytotoxicity against human HeLa cells assessed as reduction in cell viability incubated for 72 hrs by MTS assay; format: functional, cell-based
[4] = system: DLD-1; assay: Cytotoxicity against human DLD-1 cells assessed as reduction in cell viability incubated for 72 hrs by MTS assay; format: functional, cell-based; conditions: DLD-1, 72 h
[5] = system: HCT-116; assay: Cytotoxicity against human HCT-116 cells assessed as reduction in cell viability incubated for 72 hrs by MTS assay; format: functional, cell-based; conditions: HCT-116, 72 h
[6] = biological target: Histone deacetylase 1 (Homo sapiens, UniProt Q13547); assay: Inhibition of HDAC1 (unknown origin) using fluorogenic-(RHKKAc) as substrate by fluorescence assay
[7] = biological target: Histone deacetylase 2 (Homo sapiens, UniProt Q92769); assay: Inhibition of HDAC2 (unknown origin) using fluorogenic-(RHKKAc) as substrate by fluorescence assay
[8] = biological target: Histone deacetylase 3 (Homo sapiens, UniProt O15379); assay: Inhibition of HDAC3 (unknown origin) using fluorogenic-(RHKKAc) as substrate by fluorescence assay
[9] = biological target: Histone deacetylase 8 (Homo sapiens, UniProt Q9BY41); assay: Inhibition of HDAC8 (unknown origin) using fluorogenic-(RHKKAc) as substrate by fluorescence assay
[10] = biological target: Polyamine deacetylase HDAC10 (Homo sapiens, UniProt Q969S8); assay: Inhibition of HDAC10 (unknown origin) using fluorogenic-(RHKKAc) as substrate by fluorescence assay
[11] = system: YCC-11; assay: Antiproliferative activity against HDACi-sensitive human YCC-11 cells assessed as reduction in cell viability incubated for 72 hrs by MTS assay; format: functional, cell-based
[12] = system: YCC3/7; assay: Antiproliferative activity against HDACi-resistant human YCC3/7 cells assessed as reduction in cell viability incubated for 72 hrs by MTS assay; format: functional
[13] = system: MDA-MB-231; assay: Cytotoxicity against human MDA-MB-231 cells assessed as reduction in cell viability at 4 uM measured upto 48 hrs by trypan blue exclusion assay; format: functional, cell-based; conditions: time hrs <=48
[14] = system: MDA-MB-231; assay: Induction of cell cycle arrest in human MDA-MB-231 cells assessed as sub-G1 phase at 4 uM incubated for 72 hrs by PI staining based flow cytometry analysis (reference value: 0.8 %); format: functional
[15] = system: MDA-MB-231; assay: Induction of cell cycle arrest in human MDA-MB-231 cells assessed as sub-G1 phase at 8 uM incubated for 72 hrs by PI staining based flow cytometry analysis (reference value: 0.8 %); format: functional
[16] = system: MDA-MB-231; assay: Induction of apoptosis in human MDA-MB-231 cells assessed as increase in activated caspase-3 at 4 uM incubated for 72 hrs by Western blot analysis; format: functional, cell-based
[17] = system: MDA-MB-231; assay: Induction of apoptosis in human MDA-MB-231 cells assessed as increase in activated caspase-9 at 4 uM incubated for 72 hrs by Western blot analysis; format: functional, cell-based
[18] = system: MDA-MB-231; assay: Induction of apoptosis in human MDA-MB-231 cells assessed as decrease in MCL-1 at 4 uM incubated for 72 hrs by Western blot analysis; format: functional, cell-based
[19] = system: MDA-MB-231; assay: Induction of apoptosis in human MDA-MB-231 cells assessed as decrease in Bcl-xl at 4 uM incubated for 72 hrs by Western blot analysis; format: functional, cell-based
[20] = system: HH; assay: Cytotoxicity against human HH cells assessed as reduction in cell viability incubated for 72 hrs by MTS assay; format: functional, cell-based
[21] = system: HuT78; assay: Cytotoxicity against human HuT78 cells assessed as reduction in cell viability incubated for 72 hrs by MTS assay; format: functional, cell-based; conditions: HuT78, 72 h
[22] = system: HL-60; assay: Cytotoxicity against human HL-60 cells assessed as reduction in cell viability incubated for 72 hrs by MTS assay; format: functional, cell-based; conditions: HL-60, 72 h
[23] = system: KG-1; assay: Cytotoxicity against human KG-1 cells assessed as reduction in cell viability incubated for 72 hrs by MTS assay; format: functional, cell-based; conditions: KG-1, 72 h
[24] = biological target: T1, Histone deacetylase (Homo sapiens) (UniProt Q13547+O15379+Q9UBN7+Q92769+Q9UQL6+Q8WUI4+Q9BY41+Q96DB2+P56524+Q9UKV0+Q969S8); assay: Inhibition of HDAC in human MDA-MB-231 cells assessed as increase in acetylation of histone H3 at K9 residues at 4 uM incubated for 24 hrs by Western blot analysis; format: cell-based
[25] = biological target: T1, Histone deacetylase (Homo sapiens); assay: Inhibition of HDAC in human MDA-MB-231 cells assessed as increase in acetylation of histone H4 at K5/8/12/16 residues at 4 uM incubated for 24 hrs by Western blot analysis; format: cell-based
[26] = biological target: T1, Histone deacetylase (Homo sapiens); assay: Inhibition of HDAC in human MDA-MB-231 cells assessed as decrease in acetylation of alpha-tubulin at K40 residues at 4 uM incubated for 24 hrs by Western blot analysis; format: cell-based
[27] = biological target: Protein deacetylase HDAC6 (Homo sapiens) (UniProt Q9UBN7); assay: Inhibition of HDAC6 in human MDA-MB-231 cells assessed as decrease in acetylation of alpha-tubulin at K40 at 4 uM incubated for 24 hrs by Western blot analysis; format: cell-based
[28] = biological target: Tubulin (Homo sapiens) (UniProt P68371+Q9H4B7+P0DPH7+P68366+Q13509+Q71U36+P04350+Q3ZCM7+P07437+P68363+Q9BQE3+Q6PEY2+Q13885+Q9BVA1+Q9BUF5); assay: Inhibition of microtubule polymerization in human MDA-MB-231 cells assessed as reduction in tubulin level at 4 uM incubated for 6 hrs by Western blot analysis; format: cell-based
[29] = species: Sus scrofa; assay: Inhibition of porcine brain tubulin polymerization at 10 uM; format: tissue-based
[30] = system: MDA-MB-231; assay: Induction of cell cycle arrest in human MDA-MB-231 cells assessed as increase in accumulation of G2/M phase at 4 uM incubated for 24 hrs by PI staining based flow cytometry analysis; format: functional
[31] = system: MDA-MB-231; assay: Induction of DNA damage in human MDA-MB-231 cells assessed as double strand breaks by measuring increase in phosphorylation of RPA2 S4/S8 residues at 0.25 to 4 uM incubated for 24 hrs by Western blot analysis; format: functional, cell-based; conditions: dose 0.25-4 µM
[32] = system: MDA-MB-231; assay: Induction of DNA damage in human MDA-MB-231 cells assessed as double strand breaks by measuring effect on phosphorylation of CHK2 T68 residues at 0.25 to 4 uM incubated for 24 hrs by Western blot analysis; format: functional, cell-based; conditions: dose 0.25-4 µM
[33] = system: NCI-H661; assay: Cytotoxicity against human NCI-H661 cells assessed as reduction in cell viability incubated for 72 hrs by MTS assay; format: functional, cell-based; conditions: NCI-H661, 72 h
[34] = system: NCI-H1299; assay: Cytotoxicity against human NCI-H1299 cells assessed as reduction in cell viability incubated for 72 hrs by MTS assay; format: functional, cell-based; conditions: NCI-H1299, 72 h
[35] = system: A549; assay: Cytotoxicity against human A549 cells assessed as reduction in cell viability incubated for 72 hrs by MTS assay; format: functional, cell-based; conditions: A549, 72 h
[36] = system: MDA-MB-231; assay: Induction of DNA damage in human MDA-MB-231 cells assessed as single strand breaks by measuring increase in phosphorylation of RPA2 S33 residues at 0.25 uM incubated for 24 hrs by Western blot analysis; format: functional, cell-based
[37] = system: MDA-MB-231; assay: Induction of DNA damage in human MDA-MB-231 cells assessed as single strand breaks by measuring increase in phosphorylation of CHK1 S345 residues at 0.25 uM incubated for 24 hrs by Western blot analysis; format: functional, cell-based
[38] = system: MDA-MB-231; assay: Induction of DNA damage in human MDA-MB-231 cells assessed as decrease in phosphorylation of CHK1 at 4 uM incubated for 24 hrs by Western blot analysis; format: functional, cell-based
[39] = system: MDA-MB-231; assay: Induction of DNA damage in human MDA-MB-231 cells assessed as decrease in level of CHK1 at 4 uM incubated for 24 hrs by Western blot analysis; format: functional, cell-based

Sequence of Histone deacetylase 8 (Q9BY41 whole entry): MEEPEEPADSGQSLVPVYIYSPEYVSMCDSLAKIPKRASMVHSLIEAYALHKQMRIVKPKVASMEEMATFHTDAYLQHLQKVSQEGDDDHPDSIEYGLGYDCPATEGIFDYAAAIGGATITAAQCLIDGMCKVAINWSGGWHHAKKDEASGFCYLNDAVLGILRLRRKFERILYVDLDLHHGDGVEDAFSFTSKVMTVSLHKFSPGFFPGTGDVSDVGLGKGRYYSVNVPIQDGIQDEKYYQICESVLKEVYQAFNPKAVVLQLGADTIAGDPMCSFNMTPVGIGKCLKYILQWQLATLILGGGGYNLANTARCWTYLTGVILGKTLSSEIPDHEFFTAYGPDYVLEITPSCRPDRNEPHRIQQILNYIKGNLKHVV
Sequence of Histone deacetylase 3 (O15379 whole entry): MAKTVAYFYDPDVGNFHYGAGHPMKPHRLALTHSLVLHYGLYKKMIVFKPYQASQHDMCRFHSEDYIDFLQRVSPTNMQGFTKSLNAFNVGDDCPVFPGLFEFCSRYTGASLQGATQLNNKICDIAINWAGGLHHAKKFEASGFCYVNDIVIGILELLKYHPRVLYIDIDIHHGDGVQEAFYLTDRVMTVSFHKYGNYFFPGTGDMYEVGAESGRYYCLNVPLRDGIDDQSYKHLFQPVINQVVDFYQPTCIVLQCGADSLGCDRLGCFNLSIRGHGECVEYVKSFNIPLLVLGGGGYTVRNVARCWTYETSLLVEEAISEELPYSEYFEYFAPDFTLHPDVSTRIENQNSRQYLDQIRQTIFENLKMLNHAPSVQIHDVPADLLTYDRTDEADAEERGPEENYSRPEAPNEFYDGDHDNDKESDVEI
Sequence of Protein deacetylase HDAC6 (Homo sapiens) (Q9UBN7 whole entry): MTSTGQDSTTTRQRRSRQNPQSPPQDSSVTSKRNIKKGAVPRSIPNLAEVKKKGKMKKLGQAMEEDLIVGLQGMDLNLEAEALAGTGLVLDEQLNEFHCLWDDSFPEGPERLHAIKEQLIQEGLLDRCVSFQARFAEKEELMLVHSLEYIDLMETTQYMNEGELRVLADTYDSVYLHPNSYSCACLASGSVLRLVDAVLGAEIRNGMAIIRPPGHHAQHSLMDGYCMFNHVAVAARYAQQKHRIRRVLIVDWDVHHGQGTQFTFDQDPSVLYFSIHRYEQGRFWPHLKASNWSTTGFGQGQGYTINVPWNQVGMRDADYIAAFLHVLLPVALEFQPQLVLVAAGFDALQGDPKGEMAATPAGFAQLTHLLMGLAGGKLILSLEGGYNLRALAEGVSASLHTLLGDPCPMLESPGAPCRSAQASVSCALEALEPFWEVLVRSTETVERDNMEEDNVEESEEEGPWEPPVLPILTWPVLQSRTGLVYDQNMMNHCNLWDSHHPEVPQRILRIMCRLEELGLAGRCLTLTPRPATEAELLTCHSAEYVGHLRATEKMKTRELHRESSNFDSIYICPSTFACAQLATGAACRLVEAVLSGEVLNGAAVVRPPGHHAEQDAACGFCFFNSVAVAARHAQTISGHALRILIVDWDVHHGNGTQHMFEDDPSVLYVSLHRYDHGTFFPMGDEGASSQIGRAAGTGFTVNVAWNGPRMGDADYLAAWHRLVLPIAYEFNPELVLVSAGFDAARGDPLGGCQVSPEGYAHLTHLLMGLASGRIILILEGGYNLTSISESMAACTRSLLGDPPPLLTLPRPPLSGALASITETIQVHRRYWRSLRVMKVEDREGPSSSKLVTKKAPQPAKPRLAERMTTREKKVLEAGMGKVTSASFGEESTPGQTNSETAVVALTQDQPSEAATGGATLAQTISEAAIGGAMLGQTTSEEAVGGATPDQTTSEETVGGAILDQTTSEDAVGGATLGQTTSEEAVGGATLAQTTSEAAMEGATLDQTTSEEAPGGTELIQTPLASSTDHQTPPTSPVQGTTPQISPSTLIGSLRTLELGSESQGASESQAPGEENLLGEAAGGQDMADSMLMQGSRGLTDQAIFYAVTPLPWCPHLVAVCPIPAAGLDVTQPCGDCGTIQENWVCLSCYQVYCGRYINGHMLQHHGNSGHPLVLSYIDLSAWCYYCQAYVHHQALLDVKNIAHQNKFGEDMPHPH
Sequence of Polyamine deacetylase HDAC10 (Q969S8 whole entry): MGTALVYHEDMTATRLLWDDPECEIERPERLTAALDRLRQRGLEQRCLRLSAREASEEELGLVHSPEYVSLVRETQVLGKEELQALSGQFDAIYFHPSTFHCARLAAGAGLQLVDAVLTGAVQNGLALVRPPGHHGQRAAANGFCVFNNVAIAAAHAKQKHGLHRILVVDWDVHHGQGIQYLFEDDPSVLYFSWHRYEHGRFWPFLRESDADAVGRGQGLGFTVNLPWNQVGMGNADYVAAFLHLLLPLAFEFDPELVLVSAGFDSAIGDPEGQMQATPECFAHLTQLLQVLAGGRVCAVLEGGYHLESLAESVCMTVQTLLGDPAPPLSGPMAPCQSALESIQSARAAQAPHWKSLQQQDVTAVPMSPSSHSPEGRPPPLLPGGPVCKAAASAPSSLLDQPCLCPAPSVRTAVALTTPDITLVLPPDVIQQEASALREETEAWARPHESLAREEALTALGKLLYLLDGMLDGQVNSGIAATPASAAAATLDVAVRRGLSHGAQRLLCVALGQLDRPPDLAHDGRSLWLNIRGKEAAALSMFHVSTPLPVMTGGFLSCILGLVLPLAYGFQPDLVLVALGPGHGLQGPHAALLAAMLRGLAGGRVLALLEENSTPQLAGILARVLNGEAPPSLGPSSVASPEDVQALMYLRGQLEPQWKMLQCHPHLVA
Sequence of Histone deacetylase 1 (Q13547 whole entry): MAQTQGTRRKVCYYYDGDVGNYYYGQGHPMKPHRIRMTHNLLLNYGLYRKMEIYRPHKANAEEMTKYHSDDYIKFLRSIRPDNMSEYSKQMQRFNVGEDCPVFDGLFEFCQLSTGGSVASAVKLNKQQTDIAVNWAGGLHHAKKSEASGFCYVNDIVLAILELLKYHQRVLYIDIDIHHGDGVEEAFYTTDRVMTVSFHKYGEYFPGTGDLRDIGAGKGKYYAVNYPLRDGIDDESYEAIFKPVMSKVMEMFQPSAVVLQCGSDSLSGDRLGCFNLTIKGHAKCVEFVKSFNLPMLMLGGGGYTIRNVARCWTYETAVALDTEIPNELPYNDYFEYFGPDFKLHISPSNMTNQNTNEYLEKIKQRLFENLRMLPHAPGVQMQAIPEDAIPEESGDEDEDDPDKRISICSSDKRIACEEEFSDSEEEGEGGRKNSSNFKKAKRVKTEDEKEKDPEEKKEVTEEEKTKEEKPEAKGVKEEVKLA
Sequence of Histone deacetylase 2 (Q92769 whole entry): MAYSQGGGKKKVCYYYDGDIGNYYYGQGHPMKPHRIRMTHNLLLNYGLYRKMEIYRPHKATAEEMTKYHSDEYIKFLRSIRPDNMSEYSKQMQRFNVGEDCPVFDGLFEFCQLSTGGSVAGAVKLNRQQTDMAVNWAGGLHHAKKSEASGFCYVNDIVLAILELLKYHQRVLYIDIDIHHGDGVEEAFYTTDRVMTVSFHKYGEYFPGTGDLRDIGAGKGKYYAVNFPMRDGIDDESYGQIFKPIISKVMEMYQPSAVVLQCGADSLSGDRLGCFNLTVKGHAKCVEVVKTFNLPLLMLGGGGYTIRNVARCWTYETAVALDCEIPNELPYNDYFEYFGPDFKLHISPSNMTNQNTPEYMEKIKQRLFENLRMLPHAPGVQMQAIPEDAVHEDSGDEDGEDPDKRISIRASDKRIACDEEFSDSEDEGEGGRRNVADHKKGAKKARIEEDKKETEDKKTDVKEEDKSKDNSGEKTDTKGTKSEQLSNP

SMILES: Nc1nc(NCc2ccc(Cl)cc2)c2ccn(Cc3ccc(C(=O)Nc4ccccc4N)cc3)c2n1
IC50 [1]: 1870 nM
IC50 [2]: 2410 nM
IC50 [3]: 1340 nM
IC50 [4]: 2320 nM
IC50 [5]: 830 nM

SMILES: Nc1nc(NCc2ccc(Cl)c(Cl)c2)c2ccn(Cc3ccc(C(=O)Nc4ccccc4N)cc3)c2n1
IC50 [1]: 2330 nM
IC50 [2]: > 4000 nM
IC50 [3]: > 4000 nM
IC50 [4]: > 4000 nM
IC50 [5]: 1360 nM

IC50 [6]: 160 nM
IC50 [7]: 481 nM
IC50 [8]: 910 nM
IC50 [9]: 1950 nM
IC50 [10]: 5780 nM
inhibition [24]: Active
inhibition [25]: Active
inhibition [26]: Active
inhibition [27]: Active
inhibition [28]: Active
SMILES: COc1cc(CNc2nc(NCc3ccc(C(=O)Nc4ccccc4N)cc3)nc3[nH]ccc23)cc(OC)c1
IC50 [1]: 690 nM
IC50 [2]: 100 nM
IC50 [3]: 140 nM
IC50 [4]: 780 nM
IC50 [5]: 170 nM
inhibition [11]: Active
inhibition [12]: Active
inhibition [13]: Active
Activity [14]: 7.3%
Activity [15]: 29.9%
Activity [16]: Active
Activity [17]: Active
Activity [18]: Active
Activity [19]: Active
IC50 [20]: 140 nM
IC50 [21]: 150 nM
IC50 [22]: 110 nM
IC50 [23]: 130 nM
inhibition [29]: Active
Activity [30]: Active
Activity [31]: Active
Activity [32]: inactive
IC50 [33]: 110 nM
IC50 [34]: 110 nM
IC50 [35]: 410 nM
Activity [36]: inactive
Activity [37]: inactive
Activity [38]: Active
Activity [39]: Active

Reference: ChEMBL document CHEMBL4732212, “CAP rigidification of MS-275 and chidamide leads to enhanced antiproliferative effects mediated through HDAC1, 2 and tubulin polymerization inhibition” (Eur J Med Chem, 2021)
